Laboratory results from patent US11786525B1, “High-efficiency anti-tumor nano-drug delivery system containing hydralazine and preparation method thereof” (SHANGHAI INSTITUTE FOR ADVANCED STUDY ZHE JIANG UNIVERSITY, priority 2022, dated 2023).

Experiments:
[1] = system: mouse breast cancer cells (4T1); test: Cytotoxicity to 4T1 cells; format: cell-based; settings: incubated 48 h, different concentrations
Experimental: (§1) At the cellular level, the cytotoxicity of HDZ to cells is first tested. HDZ at different concentrations is incubated with mouse breast cancer cells (4T1), human breast cancer cells (MBA-MD-231), and vascular epithelial cells (HUVEC) for 48 h. […] Then, the cytotoxicity of D-NPs, C-NPs, H-NPs, and DOX with 4T1, MBA-MD-231, and HUVEC cells is subsequently tested. The experimental results are shown in FIG. 3B, FIG. 3C and FIG. 3D. […] This is because there is a polypeptide cRGD on the surface of C-NPs targeting the integrin αvβ3 overexpressed on the surface of 4T1 and MBA-MD-231 tumor cells, which can make more C-NPs enter the tumor cells and improve their cytotoxicity.

[2] = system: human breast cancer cells (MBA-MD-231); test: Cytotoxicity to MBA-MD-231 cells; format: cell-based; settings: incubated 48 h, different concentrations
Experimental: as §1

[3] = system: vascular epithelial cells (HUVEC); test: Cytotoxicity to HUVEC cells; format: cell-based; settings: incubated 48 h, different concentrations
Experimental: as §1

[4] = system: 4T1 tumor-bearing mice; test: Biodistribution in 4T1 tumor-bearing mice (tissue grinding, fluorescence analysis); format: in vivo; settings: at 48 h versus 24 h
Experimental: In addition, in order to detect the difference in the distribution of free doxorubicin, D-NPs and H-NPs in tumors and other organs, 4T1 tumor-bearing mice are sacrificed at different time intervals after intravenous injection of different drugs, the organs of the mice are taken out for tissue grinding and extraction, and finally fluorescence analysis is performed. It can be seen that compared with free doxorubicin, D-NPs and H-NPs have higher enrichment rates in various organs and tumors of mice, which are about 1.52 and about 1.81 times (24 h) higher than free doxorubicin, respectively. […] From the above cytotoxicity and blood circulation experiments, it can be inferred that this is because compared with free doxorubicin, D-NPs and H-NPs have longer blood circulation capacity in the blood and are not easy to be cleared by cells.

SMILES	cytotoxicity [1]	cytotoxicity [2]	cytotoxicity [3]	change of enrichment in the tumor site with extension of time [4]
NNc1nncc2ccccc12 [HDZ, hydralazine]	not very toxic	not very toxic	not very toxic	
COc1cccc2c1C(=O)c1c(O)c3c(c(O)c1C2=O)C[C@@](O)(C(=O)CO)C[C@@H]3O[C@H]1C[C@H](N)[C@H](O)[C@H](C)O1 [free doxorubicin, doxorubicin]				decreases
